Assay results taken from patent US20160264616A1, “THERAPEUTIC COMPOUNDS AND METHODS” (priority 2015, published 2016).
“Also recorded” adds a separate entry of the source.

Experiments:
[1] = molecular target: T1, RGS17:Gαo protein:protein interaction (Homo sapiens, UniProt Q9UGC6); test: Compound reversibility, washed/unwashed AlphaScreen; assay type: binding; conditions: RGS17 incubated with 100 μM, washed three times
T1 construct: This is the same RGS17 construct used in the high throughput screening campaign that is fully active despite the N-terminal truncation; made in house; host or cells: BL21 (DE3) E. coli for Gαo
T1 sequence (Q9UGC6 84-200 limits assumed): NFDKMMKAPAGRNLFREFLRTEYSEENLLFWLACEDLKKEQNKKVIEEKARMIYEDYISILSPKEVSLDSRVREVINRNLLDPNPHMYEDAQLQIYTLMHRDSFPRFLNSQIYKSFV
Experimental: To determine the reversibility of compound inhibition of the RGS17:Gαo protein:protein interaction, RGS17 was treated with 100 μM compound. This concentration was determined through the earlier dose-response experiments to inhibit the AlphaScreen assay >25% for each of the compounds (UI-5, UI-1590, UI-1907 and UI-1956). Upon completion of incubation with compounds, each sample was washed three times with ASB buffer. This method will promote dissociation of any compounds that are non-covalent where as any covalent modifiers would result in persistent protein:protein interaction inhibition.
First, stock solutions of all four compounds were made at a 3× concentration or 300 μM for a final concentration of 100 μM. The final DMSO concentration in the assay was 1%. Next, RGS17 and Gαo were diluted into 300 μL of assay buffer (AlphaScreen Buffer: ASB) (50 mM HEPES, 100 mM NaCl, 0.1% Lubrol, 1% bovine serum albumin [BSA], pH 8.0) at a 3× concentration of 30 nM. Next, 7.2 μL of AlphaScreen beads were added to each separate protein. The protein and bead solution was incubated on ice for 30 mins in the dark. Upon completion of protein:bead conjugation, 600 μL of ASB was added to RGS17. To the Gαo sample, 279 μL of AMF (final concentration of 10 μM NaF, […], 10 nM AlCl3, and 5 μM GDP) and 321 μL of ASB were added. The RGS17 sample was split into 90 μL tubes and 90 μL of each compound or DMSO vehicle was added to the RGS17:bead mixture and incubated for 15 mins. Upon completion of compound incubation, the RGS17:bead mixture was washed 3 times with 1.8 mL of ASB. The RGS17 protein:bead samples were pelleted after each wash through centrifugation at 15, 000×g for 10 mins. After the final wash step, the RGS17 protein:bead pellet was resuspended in 180 μL of ASB. Next, to a 384 white plate, 30 μL of the RGS17 protein:bead: compound samples either washed or unwashed were added to each well in triplicate. Finally, 15 μL of the Gαo protein:bead sample was added to each well. The plate was incubated at room temperature, in the dark, for 1.25 hours and read on a Synergy2 plate reader (Biotek, Wisnooski, Vt.) with a sensitivity setting of 200, excitation at 680 nm, and emission read at 570 nm. All data was analyzed with Graphpad Prism 6.0. All data was compared to DMSO controls and corrected for possible bead loss due to washing steps.

RGS17 = molecular target: T2, RGS17 (Homo sapiens, UniProt Q9UGC6); test: Differential scanning fluorimetry (DSF) with RGS17; assay type: binding; conditions: 50 μM compound; for effect on RGS17 thermal stability (DSF): versus DMSO
T2 construct: This is the same RGS17 construct used in the high throughput screening campaign that is fully active despite the N-terminal truncation; made in house
T2 sequence (Q9UGC6 84-200 limits assumed): T1 sequence (Q9UGC6 84-200 limits assumed)
Experimental: Further evaluation of the compounds designated UI-5, UI-1590, UI-1907 and UI-1956 was conducted using Differential Scanning Fluorimetry (DSF). This method allows for the rapid measurement of protein stability based on the melting temperature (Tm) of the target protein that is bound by ligand. A shift of Tm indicates a change in protein stability to melting due to stabilization added by the small molecule binding to the target protein. The four compounds were incubated at 50 μM with RGS17 or Gαo in the presence of Sypro Orange. In aqueous solution the fluorescence emission from the dye is very weak. However, when the dye binds to hydrophobic regions of a protein a significant increase in florescence intensity is observed intensity (20). The hydrophobic parts of a native, fully folded, protein in solution are generally buried within the protein and therefore not accessible to the dye resulting in little fluorescence emission. When the protein unfolds the dye molecules can bind to the exposed hydrophobic regions of the proteins, resulting in increased fluorescence. […] UI-5, UI-1590 and UI-1956 shifted RGS17's Tm by 2.1° C., 1.4° C. and 1.0° C., respectively (FIG. 4B). These three compounds were further characterized for activity against RGS17.
Differential scanning fluorimetry experiments were carried out using white 384-well μltraAMP PCR plates (Sorenson BioSciences; Salt Lake City, Utah). All experiments were carried out as previously described by Phillips and Hernandez de la Pena.(55) In brief, a 1:2000 dilution of Sypro Orange was made by adding 1 μL of Sypro Orange to 2 mL of PBS at pH 7.5. First, 1.2 mg/mL protein was incubated with 50 μM of each compound at room temperature for 15 min in a 10 μL volume. Upon completion of the incubation, 110 μL of the Sypro Orange-PBS solution was added to each compound/protein mixture. This yielded a final volume of 120 μL containing 0.1 mg/mL protein. Finally, 20 μL of the Sypro Orange/compound/protein mix for each compound and RGS17 or Gαo proteins was added to four wells of the 384-well plate. The experiment was run on the Roche LightCycler 480 (Roche, Switzerland) using a two-step method. Starting with a 25° C. baseline step and a second step with a target temperature of 95° C. with continuous acquisition and set acquisition rate of 3 per ° C. All data was collected using the Roche LightCycler data acquisition ability and analyzed with Graphpad Prism 6.0, using first and second derivatives of the fluorescent melting curves.

[2] = Solubility in aqueous ITC buffer

SMILES | reversibility of inhibition after washing [1] | shift of RGS17 Tm (RGS17) | effect on RGS17 thermal stability (DSF) (RGS17) | solubility at the high concentration needed for ITC [2]
C[n+]1cc2c3c(ccc2c2ccc4cc5c(cc4c21)OCO5)OCO3 [UI-5] | reversible | 2.1 °C | stabilize RGS17 against thermal denaturing | soluble in the aqueous buffer
CC1=C(O)C(=O)C=C2C1=CC=C1[C@@]2(C)CC[C@@]2(C)[C@@H]3C[C@](C)(C(=O)O)CC[C@]3(C)CC[C@]12C [UI-1590] | reversible | 1.4 °C | stabilize RGS17 against thermal denaturing | not soluble at the high concentration required; also recorded: not amendable to ITC due to solubility issues
CC(C)=CCC[C@]1(C)C=Cc2c(O)c3c(c(CC=C(C)C)c2O1)O[C@]12C(=C[C@@H]4C[C@H]1C(C)(C)O[C@@]2(C/C=C(/C)C(=O)O)C4=O)C3=O [UI-1907] | reversible | – | alter the thermal stability of both RGS17 and Gαo; also recorded: bind both the RGS and G protein subunit in a non-specific manner | –
O=c1c(-c2cc(O)c(O)c(O)c2)coc2cc(O)c(O)c(O)c12 [UI-1956, 5,6,7-trihydroxy-3-(3,4,5-trihydroxyphenyl)-4H-chromen-4-one] | reversible | 1.0 °C | stabilize RGS17 against thermal denaturing | soluble in the aqueous buffer
